Experimental data published in ChEMBL document CHEMBL1148949, “(2S,3R)-2-aminododecan-3-ol, a new antifungal agent from the ascidian Clavelina oblonga” (2004).
In brackets after ≈: the same amount, converted by molar mass.

Assays:
[1] = system: Candida albicans; test: Antifungal activity against Candida albicans ATCC 10231; assay type: functional
[2] = system: Nakaseomyces glabratus; test: Antifungal activity against Candida glabrata; assay type: functional

Molecule	MIC [1]	MIC [2]
CCCCCCCCC[C@@H](O)[C@H](C)N	0.7 mg/L (≈ 3.48 µM)	30 mg/L (≈ 149 µM)
CC(=O)N1CCN(c2ccc(OCC3COC(Cn4ccnc4)(c4ccc(Cl)cc4Cl)O3)cc2)CC1 (centres undefined) [KETOCONAZOLE]	0.01 mg/L (≈ 0.0188 µM)	
NYSTATIN	1 mg/L	
